What is called IC50 is the point on the concentration scale where inhibition reaches its midpoint. Low readings indicate greater potency, high ones weaker potency.

For one experiment, the target named is T1, angiotensin II-receptor (Rattus norvegicus, UniProt P25095).
T1 construct: The tissue (rats lung ) is homogenised in Tris-buffer; from tissue; host or cells: rat lung homogenate (washed 20,000×g pellet)
T1 sequence (P25095 1-359): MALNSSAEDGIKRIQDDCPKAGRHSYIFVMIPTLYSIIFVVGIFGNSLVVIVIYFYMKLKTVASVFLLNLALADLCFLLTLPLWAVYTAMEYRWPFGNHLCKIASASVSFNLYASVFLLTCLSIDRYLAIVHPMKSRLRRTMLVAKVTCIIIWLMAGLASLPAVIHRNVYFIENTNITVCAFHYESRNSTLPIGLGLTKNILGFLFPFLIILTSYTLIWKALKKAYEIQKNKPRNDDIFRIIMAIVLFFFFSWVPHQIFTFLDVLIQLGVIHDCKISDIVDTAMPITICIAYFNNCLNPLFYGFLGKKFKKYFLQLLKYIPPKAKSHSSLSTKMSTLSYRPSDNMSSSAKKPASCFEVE
The experiment is described as follows: Angiotensin II-receptor bonding (binding) with [125I]-angiotensin II on rat lung homogenate. The following applies: 50 pM [125I]-angiotensin II, 60 min at 37° C., pH 7.40. The method, then:
DESCRIPTION OF METHOD: ANGIOTENSIN II-RECEPTOR BONDING
The tissue (rats lung ) is homogenised in Tris-buffer (50 mMol Tris, 150 mMol NaCl, 5 mMol EDTA, pH 7.40) and centrifuged twice for 20 minutes at 20,000×g. The finished pellets are resuspended in incubating buffer (50 mMol Tris, 5 mMol MgCl2, 0.2% BSA, pH 7.40) 1:75, based on the moist weight of the tissue. Each 0.1 ml of homogenate is incubated for 60 minutes at 37° C. with 50 pM [^125 I]-antiotensin II (NEN, Dreieich, FRG) with increasing concentrations of the test substance in a total volume of 0.25 ml. Incubation is ended by rapid filtration through glass fibre filter mats. The filters are each washed with 4 ml of ice cold buffer (25 mMol Tris, 2.5 mMol MgCl2, 0.1% BSA, pH 7.40). The bound radioactivity is measured using a gamma-counter. The corresponding IC50 value is obtained from the dose-activity curve.

For experiment [1], the system named is conscious renally hypertensive rats. The experiment is described as follows: Hypotensive effect in conscious renally hypertensive rats after oral administration. The following applies: 10 mg/kg. The class given is in vivo, rat. The method, then:
In addition, compounds D, E, F, G, H, M and O were tested on conscious renally hypertensive rats for their effect after oral administration using methods known from the literature.

The subject of experiment [2] is rat model of renovascular hypertension (2-kidney 1-clip rat). Description: Renovascular hypertension: blood pressure lowering in 2-kidney 1-clip rats (telemetry, oral). The following applies: two times daily. The class given is in vivo. The text has this:
DESCRIPTION OF METHOD: RENOVASCULAR HYPERTENSION
Blood pressure lowering effects of angiotensin-II antagonists were investigated in a rat model of renovascular hypertension. This model, the 2-kidney 1-clip rat, is characterized by an elevated renin activity (see J. Exper. Med. 59, 347-378 (1934), J. Applied Physiol. 31(1), 142-144 (1971) and Gross D. R. in "Animal Models in Cardiovascular Research: Animal Models of hypertension" Martinus Nijhoff Publishers (1985)). The compounds are given two times daily by oral administration to conscious freely moving rats which have been implanted with a chronic-use pressure transmitter to monitor blood pressure and heart rate continuously (PhysioTel® telemetry device).
Male rats (140-150 g) are anaesthetized with pentobarbitonesodium (50 mg/kg i.p.). The abdominal cavity is opened by a midline incision. A solid silver clip with an internal diameter of 0.20 mm is applied to the left renal artery as close as possible to the aorta. The contralateral kidney is not disturbed. The catheter of a pressure transmitter (TA11PA-C40) is inserted in the abdominal aorta and the transmitter fixed to abdominal musculature. The abdomen is closed with sutures. The animals are allowed to recover for several weeks and housed individually in cages.
After the implantation of the chronic-use device, blood pressure and heart rate are transmitted by telemetry and the signals are received by a RA 1010 General Purpose Receiver (Data Science Int.). Data are acquired with the Dataquest® IV 1.11 System on a Hewlett Packard Vectra ES/12 386 computer.
Compounds are dissolved in 1M HCl or 1M NaOH. To stabilize the solution β-cyclodextrin (1.8 g/v%) is added. The solutions (0.3 and 1 mg/kg/2 ml) are orally given by gavage at 10.00 a.m. and 4.00 p.m..

The molecule `CCCc1nc2c(C)cc(-c3cn(CCCN(C)C)cn3)cc2n1Cc1ccc(-c2ccccc2C(=O)O)cc1` [BB] came in with an IC50 on angiotensin II-receptor of 1.3 nM.

With `CCCc1nc2c(C)cc(N3CCCCS3(=O)=O)cc2n1Cc1ccc(-c2ccccc2-c2nn[nH]n2)cc1` [G], the hypotensive effect result in experiment [1] is recorded as “exhibited a hypotensive effect”.

Regarding `CCCc1nc2c(C)cc(-c3nc4ccccc4n3C)cc2n1Cc1ccc(-c2ccccc2C(=O)O)cc1` [D], the hypotensive effect entry in experiment [1] is reported as “exhibited a hypotensive effect”. Besides, the figures for the “Blood pressure lowering activity” value in experiment [2] (0.3 mg/kg) and in experiment [2] (1.0 mg/kg) were -37 mmHg and -68 mmHg, respectively.

On to `CCCc1nc2c(C)cc(-c3cn(C)cn3)cc2n1Cc1ccc(-c2ccccc2C(=O)O)cc1` [V], for which the IC50 on angiotensin II-receptor worked out at 1.2 nM. This counts as single-digit nanomolar.

For `CCCc1nc2c(C)cc(-c3cn(CC(N)=O)cn3)cc2n1Cc1ccc(-c2ccccc2C(=O)O)cc1` [AA], at angiotensin II-receptor, the concentration for half-maximal inhibition (IC50) was 3.4 nM. Against the preceding molecule, the IC50 is about 2.8-fold higher.

Regarding `CCOc1nc2ccc(-c3cn(C(C)C)cn3)cc2n1Cc1ccc(-c2ccccc2C(=O)O)cc1` [Y], the IC50 at angiotensin II-receptor worked out at 10 nM.

As for `CCCc1nc2c(C)cc(-c3coc(C)n3)cc2n1Cc1ccc(-c2ccccc2C(=O)O)cc1` [X], on angiotensin II-receptor, the IC50 worked out at 40 nM.

Consider `CCCCc1nc2c(C)cc(-c3nc4ccccc4n3C)cc2n1Cc1ccc(-c2ccccc2-c2nnn[nH]2)cc1` [T], for which the “Blood pressure lowering activity” value in experiment [2] (0.3 mg/kg) is listed as -24 mmHg.

Consider `CCCc1nc2c(C)cc(-c3cn4cccnc4n3)cc2n1Cc1ccc(-c2ccccc2-c2nn[nH]n2)cc1` [O], for which, in experiment [1], the hypotensive effect entry is recorded as “exhibited a hypotensive effect”.

In the case of `Cc1cc(-c2nc3ccccc3n2C)cc2c1nc(C1CC1)n2Cc1ccc(-c2ccccc2C(=O)O)cc1` [M], the hypotensive effect result in experiment [1] is “exhibited a hypotensive effect”.

`CCCc1nc2c(C)cc(-c3cn(C(C)C)cn3)cc2n1Cc1ccc(-c2ccccc2-c2nn[nH]n2)cc1` [W] showed a half-maximal inhibitory concentration (IC50) at angiotensin II-receptor of 1.5 nM.

Take `CCCCc1nc2c(C)cc(N3C(=O)C(C)=C(C)C3=O)cc2n1Cc1ccc(-c2ccccc2C(=O)O)cc1` [H]: in experiment [1], the hypotensive effect entry is on record as “exhibited a hypotensive effect”.

For `CCCc1nc2c(C)cc(-c3nc4ccccc4n3C)cc2n1Cc1ccc(-c2ccccc2-c2nn[nH]n2)cc1` [E], the hypotensive effect result in experiment [1] was “exhibited a hypotensive effect”. Also, the results for the “Blood pressure lowering activity” value in experiment [2] (0.3 mg/kg) and in experiment [2] (1.0 mg/kg) were -55 mmHg and -78 mmHg, respectively.

For the molecule `CCCc1nc2c(C)cc(N3Cc4ccccc4C3=O)cc2n1Cc1ccc(-c2ccccc2-c2nn[nH]n2)cc1` [F], the hypotensive effect result in experiment [1] was “exhibited a hypotensive effect”.

With `CCCc1nc2c(C)cc(-c3cn(C4CCCCCC4)cn3)cc2n1Cc1ccc(-c2ccccc2C(=O)O)cc1` [Z], at angiotensin II-receptor, the IC50 turned out to be 15 nM.

For the molecule `CCCc1nc2c(C)cc(-c3cn4ccccc4n3)cc2n1Cc1ccc(-c2ccccc2-c2nnn[nH]2)cc1` [U], in experiment [2] (1.0 mg/kg), the “Blood pressure lowering activity” value is recorded as -43 mmHg.
